Experimental data: US11014898B1, “Benzothiazepine compounds and their use as bile acid modulators” (Albireo AB, priority 2020, dated 2021)

Experiment: Bidirectional permeability assay (Caco-2 cells)
Type: in vitro ADME
Conditions: human, Caco-2, pH 7.4, 10 μM in FaSSIF buffer, 120 minutes at 37° C.; for Papp A→B at 120 min, 10 μM: absorptive direction (A2B); for Papp B→A at 120 min, 10 μM: secretory direction (B2A)
Procedure: Caco-2 cells (Evotec) were seeded at a density of 70,000 cells/well in Millicell® 24-well cell culture insert plates and maintained in an incubator (37° C., 5% CO2, 95% RH) for 21 days with media change on alternate days.
Stock solutions (10 mM) of the test compounds, atenolol (low permeability marker), propranolol (high permeability marker) and digoxin (substrate for P-gp transport pathway) were prepared in dimethylsulfoxide (DMSO). An intermediate stock solution (1 mM) was prepared by diluting 10 μL of 10 mM master stock solution with 90 μL of neat DMSO. A working stock solution (10 μM) was prepared by diluting 50 μL of 1 mM with 4950 μL of FaSSIF buffer. Post addition of compounds to the FaSSIF, samples were subjected to sonication for 2 hours, and centrifuged at 4000 RPM for 30 minutes at 37° C. The 4 mL of resultant supernatant was directly used in the assay. The final DMSO concentration in the transport experiments was 1%.
On the day of assay, Caco-2 monolayers were washed twice with transport buffer (HBSS, pH 7.4) and pre-incubated for 30 min (37° C., 5% CO2, 95% RH) in an incubator. The electrical resistance of the monolayers was measured with a Millicell®-ERS system. Monolayers with trans-epithelial electrical resistance (TEER) values greater than 350 ohm·cm^2 were selected for the assay.
The assay was conducted in absorptive direction (A2B) and secretory (B2A) directions. Transport experiments were initiated by addition of transport assay buffer (FaSSIF buffer prepared in HBSS) consisting of compounds to the donor compartment (apical chamber A-B; basolateral chamber B-A) in duplicate (n=2) wells. Drug free HBSS buffer (pH 7.4) containing 1% bovine serum albumin (BSA) was introduced to the receiver (A-B-basolateral; B-A-Apical) compartments. The volumes of apical and basolateral compartments were 0.4 and 0.8 mL, respectively. After adding dosing solution, plates were incubated in an incubator for 120 minutes at 37° C. After 120 minutes, donor and receiver samples were collected and matrix matched (1:1, 30 μL study sample+30 μL blank buffer) with the opposite buffer. Dosing samples matrix matched (1:1, 30 μL study sample+30 μL blank buffer) with the opposite buffer. Samples were processed by adding acetonitrile containing internal standard (60 μL study sample+200 μL acetonitrile containing internal standard-Tolbutamide, 500 ng/mL). Samples were vortexed and centrifuged at 4000 rpm for 10 minutes. The obtained supernatant (100 μL) was diluted with 100 μL of water and transferred to fresh 96 well plates. The concentration of compounds in the samples was analyzed by liquid chromatography tandem mass spectrometry (LC-MS/MS) method using discovery grade bio-analytical method, as applicable.
The mean apparent permeability (Papp×10^−6 cm/sec) of the test compounds, atenolol, propranolol and digoxin were calculated as follows:
where dq/dt=rate of transport (rate of transport of compound in the receiver compartment), C0=initial concentration in the donor compartment, A=surface area of the effective filter membrane.

Row | SMILES | Papp A→B at 120 min, 10 μM [×10⁻⁶ cm/s] | Papp B→A at 120 min, 10 μM [×10⁻⁶ cm/s]
1 | CCCCC1(CCCC)CN(c2ccc(Br)cc2)c2cc(SC)c(OCC(=O)O)cc2S(=O)(=O)C1 [Example 3, 2-((5-(4-bromophenyl)-3,3-dibutyl-7-(methylthio)-1,1-dioxido-2,3,4,5-tetrahydro-1,5-benzothiazepin-8-yl)oxy)acetic Acid] | 4.1 | 1.9
2 | CCCCC1(CCCC)CN(c2ccc(O)cc2)c2cc(SC)c(OCC(=O)O)cc2S(=O)(=O)C1 [Example 4, 2-((3,3-dibutyl-5-(4-hydroxyphenyl)-7-(methylthio)-1,1-dioxido-2,3,4,5-tetrahydro-1,5-benzothiazepin-8-yl)oxy)acetic Acid] | 3.3 | 8.9
